Assay results: ChEMBL document CHEMBL4177767, “Discovery of N2-(4-Amino-cyclohexyl)-9-cyclopentyl- N6-(4-morpholin-4-ylmethyl-phenyl)- 9H-purine-2,6-diamine as a Potent FLT3 Kinase Inhibitor for Acute Myeloid Leukemia with FLT3 Mutations” (J Med Chem, 2018)
Active and inactive are the calls of the source. The calls are words filed in the database; no cut-off is given here.

Key:
MV4-11 [1] = test: Cell cycle arrest in human MV4-11 cells assessed as accumulation at S phase at 100 nM after 24 hrs by propidium iodide staining-based flow cytometric method (reference value: 28.1%); assay type: functional
[2] = molecular target: Serine/threonine-protein kinase SIK2 (Homo sapiens) (UniProt Q9H0K1); settings: 10 nM
Chain of Serine/threonine-protein kinase SIK2 (Homo sapiens) (Q9H0K1 whole entry, looked up): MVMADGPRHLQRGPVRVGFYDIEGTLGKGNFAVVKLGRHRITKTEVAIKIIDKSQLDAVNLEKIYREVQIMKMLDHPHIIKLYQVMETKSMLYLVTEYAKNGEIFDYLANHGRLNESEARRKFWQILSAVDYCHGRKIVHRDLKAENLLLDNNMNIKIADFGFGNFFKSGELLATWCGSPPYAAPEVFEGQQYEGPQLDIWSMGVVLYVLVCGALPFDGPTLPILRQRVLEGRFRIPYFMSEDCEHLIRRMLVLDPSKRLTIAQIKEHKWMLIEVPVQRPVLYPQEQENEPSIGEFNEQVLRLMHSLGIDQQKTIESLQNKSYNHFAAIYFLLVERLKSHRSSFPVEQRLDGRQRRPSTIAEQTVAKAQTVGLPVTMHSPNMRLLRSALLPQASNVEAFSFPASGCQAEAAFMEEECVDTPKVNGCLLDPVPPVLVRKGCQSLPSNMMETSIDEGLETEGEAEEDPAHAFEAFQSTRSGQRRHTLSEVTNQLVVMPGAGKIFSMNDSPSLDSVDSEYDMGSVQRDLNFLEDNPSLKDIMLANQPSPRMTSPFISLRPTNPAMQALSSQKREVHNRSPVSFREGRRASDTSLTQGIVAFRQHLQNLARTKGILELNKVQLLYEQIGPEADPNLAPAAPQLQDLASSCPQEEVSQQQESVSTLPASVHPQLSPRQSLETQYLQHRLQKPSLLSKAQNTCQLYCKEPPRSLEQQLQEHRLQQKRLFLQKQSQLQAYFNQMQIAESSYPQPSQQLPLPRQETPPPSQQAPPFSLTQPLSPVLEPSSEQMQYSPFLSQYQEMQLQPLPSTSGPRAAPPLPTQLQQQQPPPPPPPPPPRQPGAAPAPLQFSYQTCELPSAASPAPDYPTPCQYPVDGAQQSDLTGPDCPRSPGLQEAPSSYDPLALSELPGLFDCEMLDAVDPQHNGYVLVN
Description: Inhibition of full length human N-terminal GST-tagged QIK expressed in baculovirus expression system at 10 nM relative to control

[3] = molecular target: MAP kinase-interacting serine/threonine-protein kinase 2 (Homo sapiens) (UniProt Q9HBH9); settings: 10 nM
Chain of MAP kinase-interacting serine/threonine-protein kinase 2 (Homo sapiens) (Q9HBH9 whole entry, looked up): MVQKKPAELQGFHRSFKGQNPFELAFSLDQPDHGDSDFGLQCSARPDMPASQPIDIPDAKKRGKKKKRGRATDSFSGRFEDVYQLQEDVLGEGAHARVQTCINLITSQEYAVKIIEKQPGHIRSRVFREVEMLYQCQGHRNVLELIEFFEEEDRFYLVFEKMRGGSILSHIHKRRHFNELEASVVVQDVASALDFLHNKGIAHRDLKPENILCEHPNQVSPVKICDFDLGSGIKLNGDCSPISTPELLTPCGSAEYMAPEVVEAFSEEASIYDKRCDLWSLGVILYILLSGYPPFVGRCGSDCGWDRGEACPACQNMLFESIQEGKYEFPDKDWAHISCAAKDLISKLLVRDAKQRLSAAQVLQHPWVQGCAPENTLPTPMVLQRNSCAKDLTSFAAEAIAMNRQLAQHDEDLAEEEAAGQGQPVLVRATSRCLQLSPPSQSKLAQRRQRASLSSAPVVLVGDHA
Description: Inhibition of full length human N-terminal GST-tagged MNK2 expressed in baculovirus expression system at 10 nM relative to control

in vitro [4] = settings: human, MRC5 cells
Rattus norvegicus [5] = test: Toxicity in Wistar rat assessed as mortality at 100 mg/kg, iv measured over 15 days; assay type: organism-based; settings: in vivo, 360 h
[6] = molecular target: Receptor-type tyrosine-protein kinase FLT3 (Homo sapiens, UniProt P36888, ITD); test: biochemical; assay type: cell-based, Sf9
Chain of Receptor-type tyrosine-protein kinase FLT3 (P36888 whole entry, looked up, change not shown): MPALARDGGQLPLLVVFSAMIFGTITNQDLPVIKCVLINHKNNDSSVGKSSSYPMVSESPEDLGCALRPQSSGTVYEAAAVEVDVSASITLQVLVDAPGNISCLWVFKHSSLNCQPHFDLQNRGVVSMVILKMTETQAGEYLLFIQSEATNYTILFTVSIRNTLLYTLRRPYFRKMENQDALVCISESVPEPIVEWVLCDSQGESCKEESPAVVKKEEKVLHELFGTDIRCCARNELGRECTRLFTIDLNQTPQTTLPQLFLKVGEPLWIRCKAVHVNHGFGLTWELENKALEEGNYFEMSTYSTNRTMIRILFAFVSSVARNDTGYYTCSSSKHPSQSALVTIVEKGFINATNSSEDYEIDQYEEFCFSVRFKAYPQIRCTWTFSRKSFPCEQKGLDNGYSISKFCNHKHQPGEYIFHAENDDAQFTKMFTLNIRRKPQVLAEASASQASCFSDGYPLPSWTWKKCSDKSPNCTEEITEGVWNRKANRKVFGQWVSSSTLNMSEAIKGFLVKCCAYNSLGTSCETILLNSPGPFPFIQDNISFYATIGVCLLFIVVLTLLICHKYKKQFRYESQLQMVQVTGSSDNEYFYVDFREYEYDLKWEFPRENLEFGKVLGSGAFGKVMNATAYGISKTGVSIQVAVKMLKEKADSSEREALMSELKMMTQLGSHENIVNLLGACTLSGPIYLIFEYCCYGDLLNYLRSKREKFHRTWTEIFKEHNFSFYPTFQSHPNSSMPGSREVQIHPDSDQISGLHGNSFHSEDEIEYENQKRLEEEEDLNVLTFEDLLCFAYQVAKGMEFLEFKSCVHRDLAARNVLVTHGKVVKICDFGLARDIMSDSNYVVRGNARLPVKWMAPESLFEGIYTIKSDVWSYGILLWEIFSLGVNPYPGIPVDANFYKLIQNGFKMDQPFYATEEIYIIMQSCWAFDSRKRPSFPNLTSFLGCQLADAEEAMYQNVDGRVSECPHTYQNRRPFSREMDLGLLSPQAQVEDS
Description: Inhibition of N-terminal GST/His6-fused recombinant human FLT3 (R571 to S993 residues) ITD mutant expressed in Sf9 insect cells using poly (Ala,Glu,Lys,Tyr) 6:2:5:1 hydrobromide as substrate in presence of [gamma-33P]ATP

U-937 = test: cells; settings: Homo sapiens, U-937, 72 h
MOLM-13 = test: cells; settings: Homo sapiens, MOLM-13, 72 h
MV4-11 [7] = test: Cell cycle arrest in human MV4-11 cells assessed as accumulation at S phase at 1 nM after 24 hrs by propidium iodide staining-based flow cytometric method (reference value: 28.1%); assay type: functional
HCC827 = test: cells; settings: Homo sapiens, HCC827, 72 h
MV4-11 [8] = test: Induction of apoptosis in human MV4-11 cells assessed as increase in caspase-3/7 activity using Ac-DEVD-AMC substrate after 24 hrs by fluorescence assay; assay type: functional, cell-based
in vitro [9] = settings: mouse, BA/F3 cells
[10] = system: Receptor-type tyrosine-protein kinase FLT3 (Homo sapiens), P36888 [UNDEFINED MUTATION]; settings: MV4-11, at 0.01 to 100 nM
Chain of Receptor-type tyrosine-protein kinase FLT3 (Homo sapiens), P36888 [UNDEFINED MUTATION] (P36888 whole entry, looked up, change not shown, the tested form may be a part): as the sequence (P36888 whole entry, looked up, change not shown) above
Description: Inhibition of FLT3 ITD mutant in human MV4-11 cells assessed as decrease in ERK1/2 phosphorylation at T202/Y204 at 0.01 to 100 nM after 1 hr by immunoblot analysis

[11] = system: Receptor-type tyrosine-protein kinase FLT3 (Homo sapiens), P36888 [UNDEFINED MUTATION]
Description: Inhibition of FLT3 ITD mutant (unknown origin) transfected in mouse BA/F3 cells assessed as growth inhibition after 72 hrs by calcein AM dye-based fluorescence assay

[12] = system: Receptor-type tyrosine-protein kinase FLT3 (Homo sapiens), P36888 [UNDEFINED MUTATION]; settings: MV4-11, at 1 nM
Description: Inhibition of FLT3 ITD mutant autophosphorylation at Y589/591 in human MV4-11 cells at 1 nM after 1 hr by immunoblot analysis

Rattus norvegicus [13] = test: Toxicity in Wistar rat assessed as clinical signs of intoxication at 200 mg/kg, po measured over 15 days; assay type: organism-based; settings: in vivo, 360 h
MV4-11 [14] = test: Cell cycle arrest in human MV4-11 cells assessed as accumulation at G1 phase at 1 nM after 24 hrs by propidium iodide staining-based flow cytometric method (reference value: 56%); assay type: functional
MCF7 = test: cells; settings: Homo sapiens, MCF7, 72 h
Kasumi 1 = test: cells; settings: Homo sapiens, Kasumi 1, 72 h
MV4-11 [15] = test: Cell cycle arrest in human MV4-11 cells assessed as accumulation at G2/M phase at 10 nM after 24 hrs by propidium iodide staining-based flow cytometric method (reference value: 15.9%); assay type: functional
[16] = system: Mast/stem cell growth factor receptor Kit (Homo sapiens), P10721 [D816V]; settings: 10 nM
Chain of Mast/stem cell growth factor receptor Kit (Homo sapiens), P10721 [D816V] (P10721 whole entry D816V): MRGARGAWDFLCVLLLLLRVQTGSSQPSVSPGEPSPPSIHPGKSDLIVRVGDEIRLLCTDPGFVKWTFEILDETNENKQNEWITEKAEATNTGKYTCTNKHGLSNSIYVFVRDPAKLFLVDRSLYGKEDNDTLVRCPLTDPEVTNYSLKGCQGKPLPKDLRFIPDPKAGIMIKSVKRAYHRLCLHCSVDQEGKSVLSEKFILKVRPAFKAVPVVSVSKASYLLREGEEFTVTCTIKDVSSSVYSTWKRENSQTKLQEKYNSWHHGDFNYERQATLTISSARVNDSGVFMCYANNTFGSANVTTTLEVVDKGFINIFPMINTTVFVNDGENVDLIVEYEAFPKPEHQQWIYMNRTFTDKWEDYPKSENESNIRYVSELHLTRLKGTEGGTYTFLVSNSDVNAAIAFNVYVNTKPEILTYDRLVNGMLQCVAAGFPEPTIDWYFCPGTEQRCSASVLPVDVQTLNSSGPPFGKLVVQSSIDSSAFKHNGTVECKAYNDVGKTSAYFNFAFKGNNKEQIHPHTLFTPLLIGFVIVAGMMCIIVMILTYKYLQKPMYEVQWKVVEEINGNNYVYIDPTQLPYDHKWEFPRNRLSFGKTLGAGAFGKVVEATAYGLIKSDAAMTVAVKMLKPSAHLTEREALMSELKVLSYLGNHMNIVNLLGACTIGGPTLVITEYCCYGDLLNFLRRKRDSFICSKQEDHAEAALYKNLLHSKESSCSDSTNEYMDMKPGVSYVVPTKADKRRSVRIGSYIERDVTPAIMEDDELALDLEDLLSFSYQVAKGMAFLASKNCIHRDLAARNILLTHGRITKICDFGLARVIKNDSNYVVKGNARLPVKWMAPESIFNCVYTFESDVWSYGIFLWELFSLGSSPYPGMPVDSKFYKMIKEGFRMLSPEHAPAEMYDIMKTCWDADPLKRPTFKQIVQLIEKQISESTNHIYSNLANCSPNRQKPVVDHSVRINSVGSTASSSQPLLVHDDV
Description: Inhibition of human N-terminal GST-tagged KIT D816V mutant cytoplasmic domain expressed in baculovirus expression system at 10 nM relative to control

[17] = molecular target: Macrophage colony-stimulating factor 1 receptor (Homo sapiens) (UniProt P07333); settings: 10 nM
Chain of Macrophage colony-stimulating factor 1 receptor (Homo sapiens) (P07333 whole entry): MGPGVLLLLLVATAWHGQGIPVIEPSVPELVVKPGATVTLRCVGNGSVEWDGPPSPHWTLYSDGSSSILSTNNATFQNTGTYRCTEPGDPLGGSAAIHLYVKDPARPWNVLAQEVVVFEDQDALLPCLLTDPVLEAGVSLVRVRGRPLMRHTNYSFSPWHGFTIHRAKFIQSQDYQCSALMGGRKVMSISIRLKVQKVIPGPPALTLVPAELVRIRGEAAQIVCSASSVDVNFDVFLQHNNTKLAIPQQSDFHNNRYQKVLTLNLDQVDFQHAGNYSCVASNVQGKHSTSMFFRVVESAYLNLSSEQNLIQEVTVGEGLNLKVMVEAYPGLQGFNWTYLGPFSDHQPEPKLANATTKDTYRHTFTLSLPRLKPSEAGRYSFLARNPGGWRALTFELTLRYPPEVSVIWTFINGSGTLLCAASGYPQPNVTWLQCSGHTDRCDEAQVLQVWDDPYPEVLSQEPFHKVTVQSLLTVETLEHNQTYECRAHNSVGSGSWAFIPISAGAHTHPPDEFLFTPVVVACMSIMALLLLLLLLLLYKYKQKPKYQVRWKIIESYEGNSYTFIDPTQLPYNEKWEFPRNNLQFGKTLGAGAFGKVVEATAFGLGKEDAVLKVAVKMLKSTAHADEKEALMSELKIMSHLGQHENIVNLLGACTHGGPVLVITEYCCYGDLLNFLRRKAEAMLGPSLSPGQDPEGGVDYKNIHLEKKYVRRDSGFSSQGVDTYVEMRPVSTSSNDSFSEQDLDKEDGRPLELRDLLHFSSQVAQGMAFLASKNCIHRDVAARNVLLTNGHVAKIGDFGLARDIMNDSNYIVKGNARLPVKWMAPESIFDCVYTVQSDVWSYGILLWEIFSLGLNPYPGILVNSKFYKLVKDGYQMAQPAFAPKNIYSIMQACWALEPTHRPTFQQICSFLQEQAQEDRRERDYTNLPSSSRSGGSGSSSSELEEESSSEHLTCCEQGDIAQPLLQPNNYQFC
Description: Inhibition of human N-terminal GST-tagged FMS expressed in baculovirus expression system at 10 nM relative to control

MV4-11 [18] = test: Cell cycle arrest in human MV4-11 cells assessed as accumulation at G1 phase at 0.01 nM after 24 hrs by propidium iodide staining-based flow cytometric method (reference value: 56%); assay type: functional
MV4-11 [19] = test: Cell cycle arrest in human MV4-11 cells assessed as accumulation at sub-G1 phase at 1 nM after 24 hrs by propidium iodide staining-based flow cytometric method (reference value: 9.2%); assay type: functional
MV4-11 [20] = test: Cell cycle arrest in human MV4-11 cells assessed as accumulation at G2/M phase at 0.1 nM after 24 hrs by propidium iodide staining-based flow cytometric method (reference value: 15.9%); assay type: functional
[21] = system: Receptor-type tyrosine-protein kinase FLT3 (Homo sapiens), P36888 [UNDEFINED MUTATION]; settings: MV4-11, at 0.01 to 100 nM; remark: listed apart in the source
Description: Inhibition of FLT3 ITD mutant in human MV4-11 cells assessed as decrease in STAT5 phosphorylation at Y694 at 0.01 to 100 nM after 1 hr by immunoblot analysis

Rattus norvegicus [22] = test: Toxicity in Wistar rat assessed as pathological macroscopic changes at 200 mg/kg, po after 15 days; assay type: organism-based; settings: in vivo, 360 h
MV4-11 [23] = test: Cell cycle arrest in human MV4-11 cells assessed as accumulation at G2/M phase at 100 nM after 24 hrs by propidium iodide staining-based flow cytometric method (reference value: 15.9%); assay type: functional
MV4-11 [24] = test: Cell cycle arrest in human MV4-11 cells assessed as accumulation at sub-G1 phase at 0.1 nM after 24 hrs by propidium iodide staining-based flow cytometric method (reference value: 9.2%); assay type: functional
MV4-11 [25] = test: Induction of apoptosis in human MV4-11 cells assessed as decrease in Mcl-1 levels at 10 to 100 nM after 24 hrs by immunoblot method; assay type: functional, cell-based
[26] = system: Receptor-type tyrosine-protein kinase FLT3 (Homo sapiens), P36888 [UNDEFINED MUTATION]; settings: MV4-11, at 1 nM; remark: listed apart in the source
Description: Inhibition of FLT3 ITD mutant autophosphorylation at Y842 in human MV4-11 cells at 1 nM after 1 hr by immunoblot analysis

[27] = molecular target: Receptor-type tyrosine-protein kinase FLT3 (Homo sapiens) (UniProt P36888); test: Inhibition of human N-terminal GST-tagged FLT3 cytoplasmic domain expressed in baculovirus expression system at 10 nM
Chain of Receptor-type tyrosine-protein kinase FLT3 (Homo sapiens) (P36888 whole entry, the tested form may be a part): as the sequence (P36888 whole entry, looked up, change not shown) above

MV4-11 [28] = test: Cell cycle arrest in human MV4-11 cells assessed as accumulation at S phase at 0.01 nM after 24 hrs by propidium iodide staining-based flow cytometric method (reference value: 28.1%); assay type: functional
MV4-11 [29] = test: Cell cycle arrest in human MV4-11 cells assessed as accumulation at S phase at 0.1 nM after 24 hrs by propidium iodide staining-based flow cytometric method (reference value: 28.1%); assay type: functional
MV4-11 [30] = test: Cell cycle arrest in human MV4-11 cells assessed as accumulation at sub-G1 phase at 0.01 nM after 24 hrs by propidium iodide staining-based flow cytometric method (reference value: 9.2%); assay type: functional
MV4-11 [31] = test: Cell cycle arrest in human MV4-11 cells assessed as accumulation at S phase at 10 nM after 24 hrs by propidium iodide staining-based flow cytometric method (reference value: 28.1%); assay type: functional
THP-1 = test: cells; settings: Homo sapiens, THP-1, 72 h
[32] = system: Receptor-type tyrosine-protein kinase FLT3 (Homo sapiens), P36888 [UNDEFINED MUTATION]; settings: MV4-11, at 0.01 to 100 nM; remark: listed apart in the source
Description: Inhibition of FLT3 ITD mutant in human MV4-11 cells assessed as decrease in AKT phosphorylation at S473 at 0.01 to 100 nM after 1 hr by immunoblot analysis

Mus musculus = species on record: Mus musculus; test: animal or person; settings: MV4-11, ip, 2 h, read-out: INH

Work on N[C@H]1CC[C@H](Nc2nc(Nc3ccc(CN4CCOCC4)cc3)c3ncn(C4CCCC4)c3n2)CC1 yielded an Activity (MV4-11 [1]) of 3.8%, an inhibition [2] of over 90% and an inhibition [3] of over 90%. The GI50 at 72 h (in vitro [4]) was 20.6 µM, the Activity (Rattus norvegicus [5]) was “Non-Toxic” and the IC50 [6] was 3 nM. For the same molecule, the GI50 (U-937) was 664 nM, the GI50 (MOLM-13) was 1 nM and the Activity (MV4-11 [7]) was 8.6%. For the same molecule, the GI50 (HCC827) was 327 nM, the Activity (MV4-11 [8]) was “Active” and the GI50 at 72 h (in vitro [9]) was 1140 nM. For the same molecule, the inhibition [10] was “Active”, the GI50 [11] was 34 nM and the inhibition [12] was “Active”. For the same molecule, the Activity (Rattus norvegicus [13]) was “Non-Toxic”, the Activity (MV4-11 [14]) was 90.3% and the GI50 (MCF7) was 197 nM. It also gave a GI50 (Kasumi 1) of 513 nM, an Activity (MV4-11 [15]) of 0.8% and an inhibition [16] of over 90%. For the same molecule, the inhibition [17] was over 90%, the Activity (MV4-11 [18]) was 5.6% and the Activity (MV4-11 [19]) was 20.4%. The Activity (MV4-11 [20]) was 12.3%, the inhibition [21] was “Active” and the Activity (Rattus norvegicus [22]) was “Non-Toxic”. For the same molecule, the Activity (MV4-11 [23]) was 1.2%, the Activity (MV4-11 [24]) was 11.8% and the Activity (MV4-11 [25]) was “Active”. For the same molecule, the inhibition [26] was “Active”, the inhibition [27] was “Active” and the Activity (MV4-11 [28]) was 29.9%. The Activity (MV4-11 [29]) was 28%, the Activity (MV4-11 [30]) was 9.9% and the Activity (MV4-11 [31]) was 2.7%. The GI50 (THP-1) was 713 nM, the inhibition [32] was “Active” and the inhibition in vivo at 10 mg/kg (Mus musculus) was 95%.
